Here are results for 7 substances from patent US20100311668A1, “PERSONAL CARE AND COSMETIC COMPOSITION CONTAINING TETRAPEPTIDES WITH THE MOTIFS GX1X2G, PX1X2P, OR PX1X2K” (EVONIK GOLDSCHMIDT GMBH, priority 2007, published 2010).

Ends that are not written are not given here.

In assay [1] the test system is collagen 1 alpha-1 (COL1A1). In words: Collagen 1 alpha-1 (COL1A1) mRNA expression in human dermal fibroblasts, quantitative PCR. The format is cell-based. The settings on record: HDFs, 1 μg/ml peptide, 24 hours, vs PBS control, normalized to 18S rRNA. The protocol:
FIG. 3: Collagen 1 alpha-1 (COL1A1) expression in human dermal fibroblasts (HDFs). […] Controls received PBS. Cells were harvested after 24 hours incubation and RNA was isolated. Expression of […] was determined by quantitative PCR. 18s rRNA served as house keeping gene for normalization. Given are means of three independent experiments.
(§1) Therefore, HDFs prepared from neonatal foreskin were cultured in EMEM (Life Technologies GmbH, Eggenstein, Germany) supplemented with 5% fetal calf serum (Greiner, Frickenhausen, Germany), 0.1% 1-glutamine, 2.5% NaHCO3, and 1% streptomycin/amphotericin B in a humidified atmosphere containing 5% CO2 for 4 days until they reached confluence as described by Schieke et al. J Invest Dermatol 2002, 119: 1323-9. […]
(§2) For isolation of total RNA RNeasy Total RNA Kits (Qiagen, Hilden; Germany) were used according to the manufacturer's guidelines. The RNA concentration was determined via photometric measurement at 260/280 (Biophotometer, Eppendorf, Hamburg, Germany).
(§3) Aliquots of total RNA (100 ng) were applied for cDNA-Synthesis using Superscript™ III First-Strand synthesis system for the reverse transcription step with random […] (Invitrogen, Karlsruhe, Germany). […] Three independent experiments were performed with 3 determinations each and the mean value of these was calculated. […] Each sample was analyzed in double employing the universal protocol over 46 cycles. […]

Assay [2] relates to hyaluronic acid synthetase 1 (HAS1). As to the kind of experiment: Hyaluronic acid synthetase 1 (HAS1) mRNA expression in human dermal fibroblasts, quantitative PCR. The format is cell-based. The following applies: HDFs, 1 μg/ml peptide, 24 hours, vs PBS control, normalized to 18S rRNA. The protocol:
FIG. 2: Hyaluronic acid synthetase 1 (HAS1) expression in human dermal fibroblasts (HDFs). […] Controls received PBS. Cells were harvested after 24 hours incubation and RNA was isolated. Expression of […] was determined by quantitative PCR. 18s rRNA served as house keeping gene for normalization. Given are means of three independent experiments.
as §1, §2, §3

Assay [3] has as its system human dermal fibroblasts (HDFs). In words: Collagen production in human dermal fibroblasts, Sircol Soluble Collagen Assay of culture supernatants. It counts as cell-based. The following applies: 1 μg/ml peptide, 24 hours, vs PBS control. As for the experimental part: FIG. 5: Collagen production in human dermal fibroblasts (HDFs). […] Controls received PBS. Cell culture supernatands were collected after 24 hours incubation. Amounts of collagen were determined as described above. Given are means of three independent experiments.
Therefore, HDFs prepared from neonatal foreskin were cultured in EMEM (Life Technologies GmbH, Eggenstein, Germany) supplemented with 5% fetal calf serum (Greiner, Frickenhausen, Germany), 0.1% 1-glutamine, 2.5% NaHCO3, and 1% streptomycin/amphotericin B in a humidified atmosphere containing 5% CO2 for 4 days until they reached confluence as described by Schieke et al. J Invest Dermatol 2002, 119: 1323-9. For all studies, only early passage (<12) fibroblasts have been used to avoid changes in their original phenotype during subculture. Cells were kept in 6 well plates for culture. Peptides dissolved in PBS were added at concentrations of 1 μg/ml and incubated for 24 hours.
The amount of collagen in cell culture supernatants was determined utilizing a Sircol™ Soluble Collagen Assay (# S1000) from Biocolor Ltd. (Newtownabbay, Northern Ireland, UK) following the guidelines of the manufacturer.

Assay [4] relates to collagen 1 alpha-2 (COL1A2). In words: Collagen 1 alpha-2 (COL1A2) mRNA expression in human dermal fibroblasts, quantitative PCR. The following applies: HDFs, 1 μg/ml peptide, 24 hours, vs PBS control, normalized to 18S rRNA. It counts as cell-based.
Description: FIG. 4: Collagen 1 alpha-2 (COL1A2) expression in human dermal fibroblasts (HDFs). […] Controls received PBS. Cells were harvested after 24 hours incubation and RNA was isolated. […] 18s rRNA served as house keeping gene for normalization. Given are means of three independent experiments.
Aliquots of total RNA (100 ng) were applied for cDNA-Synthesis using Superscript™ III First-Strand synthesis system for the reverse transcription step with random healers (Invitrogen, Karlsruhe, Germany). […] Three independent experiments were performed with 3 determinations each and the mean value of these was calculated. […] Each sample was analyzed in double employing the universal protocol over 46 cycles. […]
A further assay relates to fibronectin 1 (FN1). In words: Fibronectin 1 (FN1) mRNA expression in human dermal fibroblasts, quantitative PCR. The format is cell-based. The following applies: HDFs, 1 μg/ml peptide, 24 hours, vs PBS control, normalized to 18S rRNA. The protocol: FIG. 1: Fibronectin 1 (FN1) expression in human dermal fibroblasts (HDFs). […] Controls received PBS. Cells were harvested after 24 hours incubation and RNA was isolated. Expression of FN1 was determined by quantitative PCR. 18s rRNA served as house keeping gene for normalization. Given are means of three independent experiments.
as §1, §2, §3

For assay [5], the system named is proinflammatory cytokines. In words: Inhibition of UV-induced expression of proinflammatory cytokines.
The next assay deals with collagen. The settings on record: prior-art product background; cited from earlier work.

In the case of GAGP [SEQ ID NO:11, tetrapeptide GAGP], the COL1A1 expression result in assay [1] is “Strongest effects”.
Turning to “GEKG (also: N-acyl group, acyl not given here) [SEQ ID NO:3, tetrapeptide GEKG]”, in assay [2], the HAS1 expression entry is recorded as “strongest effects”. The “collagen production (collagen protein in cell culture supernatants)” value in assay [3] is “markedly increased production of collagen”.
Regarding “GEPG (also: N-acyl group, acyl not given here) [SEQ ID NO:1, tetrapeptide GEPG]”, the COL1A2 expression result in assay [4] is on record as “triggering effects”. The HAS1 expression entry in assay [2] is on record as “strongest effects”.
Take “GPPG (also: N-acyl group, acyl not given here) [SEQ ID NO:2, tetrapeptide GPPG]”: the FN1 expression entry with fibronectin 1 (FN1) is recorded as “strongest effects”.
Regarding “PGPP (also: N-acyl group, acyl not given here) [SEQ ID NO:4, tetrapeptide PGPP]”, in the assay on fibronectin 1 (FN1), the FN1 expression result was “strongest effects”. In addition, in assay [4], the COL1A2 expression entry was “triggering effects”. Moreover, the “collagen production (collagen protein in cell culture supernatants)” value in assay [3] was “markedly increased production of collagen”.
As for “PKEK (also: N-acyl group, acyl not given here) [tetrapeptide PKEK]”, the “inhibition of UV-induced expression of proinflammatory cytokines” value in assay [5] was “inhibition of UV-induced expression of proinflammatory cytokines”.
Val-Trp: in the assay on collagen, the collagen stimulating activity entry is on record as “no significant collagen stimulating activity”.
